The text below walks through data of PubChem BioAssay (NCI).

Each structure is given as a SMILES string.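 Grown in 96-well plates, cells were treated for 48 hours with each compound at five concentrations. Insufficient inhibition: endpoint recorded as highest concentration tested. Definition used: TGI = concentration required for complete inhibition of growth.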

Experiment in all cases: NCI tumour cell line growth inhibition, 48 h
Test [1] relates to DU-145 prostate.
Test [2] deals with SK-MEL-28 melanoma.
Test [3] deals with A498 renal.
In test [4] the test system is SNB-19 CNS.
Test [5] relates to PC-3 prostate.
Test [6] has as its system IGROV1 ovarian.
Test [7] deals with K-562 leukemia.
Test [8] concerns BT-549 breast.
Test [9] deals with HL-60(TB) leukemia.
The test system of test [10] is MDA-MB-435.
Test [11] has as its system NCI-H460 lung.
Test [12] concerns UO-31 renal.
Test [13] concerns SK-MEL-2 melanoma.
For test [14], the system named is RXF 393 renal.
For test [15], the system named is HCC-2998 colon.
Test [16] concerns M14 melanoma.
Test [17] relates to COLO 205 colon.
Test [18] concerns SF-268 CNS.
For test [19], the system named is HT29 colon.

Take `Cc1c(C#N)c2ccccc2c2nc3ccccc3n12`: the TGI in test [1], in [2], in [3], in test [4], in test [5] and in [6] was greater than 100 µM in each case. Further, the TGI in test [7], in [8], in test [9], in test [10], in [11] and in test [12] was greater than 100 µM throughout. Besides, the TGI in test [13], in test [14] and in test [15] was greater than 100 µM each time.
Regarding `CN(C)Cc1cc(N=Nc2cccc(Cl)c2)ccc1O`, the TGI in [1] was 27.9 µM; in test [2], 26.9 µM; in test [3], 23.8 µM; in [4] it was 51.3 µM; in test [16], 25.5 µM; in test [5] it was 38.1 µM. Also, the TGI in [6] stood at 27.1 µM; in test [7], 12.8 µM; in test [8], 34 µM; in [9] it was 37.4 µM; in test [17], 38.5 µM; in [10], 15.8 µM. The TGI in [11] stood at 26.4 µM; in test [18], 40.3 µM; in test [12], 23.3 µM; in test [19], 33.7 µM; in test [14] it was 20.8 µM; in test [15], 27.9 µM.
On to `O=S(=O)(O)CCCC1S(=O)(=O)OCCOS1(=O)=O`, for which the TGI in test [1], in test [2], in test [3], in test [4], in test [16] and in [5] was greater than 100 µM throughout. In addition, the TGI in test [6], in test [8], in test [9], in test [17], in [10] and in test [11] was greater than 100 µM in each case. For the same molecule, the TGI in test [18], in test [12], in test [19], in test [14] and in test [15] was greater than 100 µM throughout.
Turning to `COc1cc(OC)cc(OCc2ccc3nc(-c4ccccc4)c(Cl)nc3c2)c1`, the TGI in test [1] is greater than 100 µM; in [2], greater than 100 µM; in test [3], 76.8 µM; in test [4], 66.9 µM; in [16], greater than 100 µM; in [5], greater than 100 µM. In addition, the TGI in test [6] was 66.4 µM; in test [8], 65.3 µM; in test [9] it was greater than 100 µM; in test [17], 68.9 µM; in test [10] it was greater than 100 µM; in test [11], greater than 100 µM. Further, the TGI in [18], in test [12], in test [13], in [19] and in test [15] was greater than 100 µM each time.
Turning to `COc1ccc(/C=C/c2sc3ccccc3[n+]2CCCCI)cc1OC`, the TGI in [1], in [2], in test [3], in test [4], in test [16] and in [5] was greater than 10 µM throughout. Moreover, the TGI was greater than 10 µM in [6]; greater than 10 µM in test [7]; greater than 10 µM in test [8]; 7.48 µM in test [9]; greater than 10 µM in test [10]; greater than 10 µM in test [11]. Moreover, the TGI in test [18] is greater than 10 µM; in test [12], greater than 10 µM; in [13], 9.47 µM; in test [19], greater than 10 µM; in [14], greater than 10 µM; in test [15], greater than 10 µM.
Take `Cc1n[nH]c(=O)n1C1CCCC1`: the TGI in test [1], in test [2], in test [3], in [4], in test [16] and in test [5] was greater than 100 µM throughout. The TGI in test [6], in test [7], in [8], in test [9], in [17] and in test [10] was greater than 100 µM in each case. Further, the TGI in test [11], in test [18], in test [12], in test [19], in [14] and in [15] was greater than 100 µM throughout.
In the case of `Cn1ccc(C(=O)N2CCSC2=S)c(OCc2ccccc2)c1=O`, the TGI in [1], in test [2], in test [3], in test [4], in test [5] and in test [7] was greater than 100 µM throughout. For the same molecule, the TGI in [8], in test [9], in [17], in test [10], in [11] and in test [18] was greater than 100 µM throughout. The TGI in test [12], in [13], in [19] and in [15] was greater than 100 µM in each case.
Regarding `C=[N+](CNC(=O)CNC(=O)C(Cc1ccc([N+](=O)[O-])cc1)NC(=O)OC(C)(C)C)C(=O)CNC(=O)C(Cc1ccc([N+](=O)[O-])cc1)NC(=O)OC(C)(C)C` (stereo unspecified), the TGI was greater than 100 µM in test [1]; 72.6 µM in [2]; greater than 100 µM in test [3]; greater than 100 µM in test [4]; greater than 100 µM in test [16]; greater than 100 µM in [5]. Moreover, the TGI in test [6] was greater than 100 µM; in test [7] it was greater than 100 µM; in [8], 85.5 µM; in [9] it was 46.5 µM; in test [17], greater than 100 µM; in test [10], 62.7 µM. In addition, the TGI in [11] is greater than 100 µM; in test [18] it was 61.8 µM; in test [12] it was greater than 100 µM; in [19], greater than 100 µM; in test [14], greater than 100 µM; in test [15] it was greater than 100 µM.
As to `Cc1ccc(Cc2n[nH]c(=O)n2-c2ccccc2)cc1`, the TGI in test [1], in [2], in [3], in test [4], in test [5] and in test [6] was greater than 100 µM in each case. For the same molecule, the TGI in test [7], in test [8], in test [9], in test [10], in test [11] and in test [18] was greater than 100 µM each time. The TGI in test [12], in test [13], in [19], in test [14] and in test [15] was greater than 100 µM in each case.
As for `CCOC(=O)C1C(c2ccc(OC)cc2)c2c([nH]n(-c3ccccc3)c2=O)CC1(O)OCC` (stereo unspecified), the TGI in test [1], in test [2], in test [3], in test [16], in test [5] and in test [6] was greater than 100 µM in each case. Moreover, the TGI in test [8] is greater than 100 µM; in [9], 15 µM; in test [17] it was greater than 100 µM; in test [10] it was greater than 100 µM; in test [11] it was greater than 100 µM; in [18], greater than 100 µM. Besides, the TGI in test [12], in [13], in [19] and in [15] was greater than 100 µM throughout.
Consider `CC(C)(C)n1c(=O)[nH]n(C2NN=Cc3cccc4cccc2c34)c1=O` (stereo unspecified), for which the TGI in test [1] was greater than 100 µM; in test [2], greater than 100 µM; in test [3] it was 64.9 µM; in test [4], greater than 100 µM; in test [16], greater than 100 µM; in test [5], greater than 100 µM. Besides, the TGI was 40.7 µM in [7]; greater than 100 µM in [8]; 42.1 µM in test [9]; 74.9 µM in [17]; greater than 100 µM in test [10]; greater than 100 µM in test [11]. Also, the TGI in test [18] was greater than 100 µM; in test [12] it was 70.3 µM; in test [13], greater than 100 µM; in test [19] it was 45.9 µM; in [14] it was 72.2 µM; in [15], greater than 100 µM.
As to `COc1cc(-c2cc(=O)c3c(OC)c(OC)c(OC)cc3o2)c(OC)c(OC)c1OC`, the TGI in test [1], in test [2], in test [4], in [16], in test [5] and in test [6] was greater than 75 µM in each case. In addition, the TGI in test [7] is greater than 75 µM; in test [8] it was greater than 75 µM; in test [9], 44 µM; in [17], greater than 75 µM; in [10], greater than 75 µM; in [11], greater than 75 µM. In addition, the TGI in test [18], in test [12], in [13], in [19], in test [14] and in [15] was greater than 75 µM in each case.
